How the values were obtained:
Format in all cases: in vivo
[1] = system: deadnettle (henbit deadnettle, Lamium amplexicaule); assay: Test D postemergence controlled growth environment test, plant response rating 0-100
Source text: (§1) Seeds of plant species selected from bluegrass (annual bluegrass, Poa annua), blackgrass (Alopecurus myosuroides), canarygrass (Phalaris minor), chickweed (common chickweed, Stellaria media), galium (catchweed bedstraw, Galium aparine), downy bromegrass (Bromus tectorum), field violet (Viola arvensis), green foxtail (Setaria viridis), deadnettle (henbit deadnettle, Lamium amplexicaule), Italian ryegrass (Lolium multiflorum), kochia (Kochia scoparia), lambsquarters (Chenopodium album), oilseed rape (Brassica napus), pigweed (Amaranthus retroflexus), Russian thistle (Salsola kali), spring barley (Hordeum vulgare), spring wheat (Triticum aestivum), wild buckwheat (Polygonum convolvulus), wild mustard (Sinapis arvensis), wild oat (Avena fatua), windgrass (Apera spica-venti), winter barley (Hordeum vulgare), and winter wheat (Triticum aestivum) were planted in pots containing Redi-Earth® planting medium (Scotts Company, 14111 Scottslawn Road, Marysville, Ohio 43041) comprising spaghnum peat moss, vermiculite, wetting agent and starter nutrients and treated with postemergence applications of test chemicals formulated in a non-phytotoxic solvent mixture which included a surfactant. Plants ranged in height from 2 to 18 cm (1- to 4-leaf stage). Treated plants and controls were maintained in a controlled growth environment for 14 days after which time all species were compared to controls and visually evaluated. Plant response ratings, summarized in Table D, are based on a scale of 0 to 100 where 0 is no effect and 100 is complete control. A dash (-) response means no test result.

[2] = system: windgrass (Apera spica-venti); assay: as above
Source text: as §1

[3] = system: oilseed rape (Brassica napus); assay: as above
Source text: as §1

[4] = system: morningglory (Ipomoea coccinea); assay: Test E pre-/postemergence greenhouse test, plant response rating 0-100; conditions: Preemergence, scale 0 to 100
[5] = system: lambsquarters (Chenopodium album); assay: as above; conditions: Preemergence, scale 0 to 100
Summary of the method: (§2)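 Each species was tested both preemergence, with chemicals sprayed onto freshly planted silt loam, and postemergence, on plants 2 to 18 cm tall in a peat-based medium; the vehicle was a non-phytotoxic solvent mixture with surfactant. After 14 to 21 days in the greenhouse, growth was visually compared with controls and scored 0–100.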

[6] = system: smartweed (ladysthumb smartweed, Polygonum persicaria); assay: as above; conditions: Postemergence, 250 g ai/ha; scale 0 to 100
[7] = system: cocklebur (common cocklebur, Xanthium strumarium); assay: as above; conditions: Preemergence, scale 0 to 100
Summary of the method: as §2

[8] = system: ragweed (common ragweed, Ambrosia elatior); assay: as above; conditions: Preemergence, scale 0 to 100
Summary of the method: as §2

[9] = system: nightshade (eastern black nightshade, Solanum ptycanthum); assay: as above; conditions: Preemergence, scale 0 to 100
Summary of the method: as §2

[10] = system: large (Lg) crabgrass (Digitaria sanguinalis); assay: as above; conditions: Preemergence, scale 0 to 100
[11] = system: giant foxtail (Setaria faberii); assay: as above; conditions: Preemergence, scale 0 to 100
[12] = system: waterhemp_RES1, (ALS & Triazine resistant common waterhemp, Amaranthus rudis); assay: Test E postemergence greenhouse test, plant response rating 0-100; conditions: scale 0 to 100
Summary of the method: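 Visual ratings, 0 (no effect) to 100 (complete control), made versus controls 14–21 days after postemergence application in the greenhouse. Plants were at 1- to 4-leaf stage (2–18 cm) in peat moss/vermiculite potting medium.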

[13] = system: surinam grass (Brachiaria decumbens); assay: Test E pre-/postemergence greenhouse test, plant response rating 0-100; conditions: Preemergence, scale 0 to 100
Summary of the method: as §2

[14] = system: green foxtail (Setaria viridis); assay: as above; conditions: Preemergence, scale 0 to 100

Clc1cc(Cl)cc(-c2n[nH]cc2C(=NN2CCCC2)c2ccccc2)c1 [Compound 30, N-[[3-(3,5-dichlorophenyl)-1H-pyrazol-4-yl]phenylmethylene]-1-pyrrolidinamine]
85: Plant response rating, Oilseed Rape ([3]; 125 g ai/ha)
60: Plant response rating, Oilseed Rape ([3]; 62 g ai/ha)
0: Plant response rating, Deadnettle ([1]; 16 g ai/ha) | Plant response rating, Deadnettle ([1]; 31 g ai/ha) | Plant response rating, Deadnettle ([1]; 62 g ai/ha) | Plant response rating, Windgrass ([2]; 16 g ai/ha) | Plant response rating, Windgrass ([2]; 31 g ai/ha) | Plant response rating, Windgrass ([2]; 62 g ai/ha) | Plant response rating, Windgrass ([2]; 125 g ai/ha) | Plant response rating, Windgrass ([2]; 250 g ai/ha) | Plant response rating, Oilseed Rape ([3]; 250 g ai/ha)
30: Plant response rating, Oilseed Rape ([3]; 16 g ai/ha)
10: Plant response rating, Deadnettle ([1]; 125 g ai/ha) | Plant response rating, Deadnettle ([1]; 250 g ai/ha)
50: Plant response rating, Oilseed Rape ([3]; 31 g ai/ha)

Cn1cc(C(=O)c2ccccc2)c(-c2cc(Cl)cc(Cl)c2)n1 [Compound 54, [3-(3,5-dichlorophenyl)-1-methyl-1H-pyrazol-4-yl]phenylmethanone]
86: Lambsquarters plant response rating ([5]; 250 g ai/ha)
0: Plant response rating, Smartweed [6] | Cocklebur plant response rating ([7]; 125 g ai/ha) | Cocklebur plant response rating ([7]; 250 g ai/ha) | Nightshade plant response rating ([9]; 125 g ai/ha) | Nightshade plant response rating ([9]; 250 g ai/ha)
62: Ragweed plant response rating ([8]; 250 g ai/ha)
12: Morningglory plant response rating ([4]; 250 g ai/ha)
68: Lambsquarters plant response rating ([5]; 125 g ai/ha)
35: Ragweed plant response rating ([8]; 125 g ai/ha)
99: Plant response rating, Lambsquarters ([5]; 1000 g ai/ha)
7: Morningglory plant response rating ([4]; 125 g ai/ha)

C#CCn1cc(C(=O)c2ccccc2)c(-c2cc(Cl)cc(Cl)c2)n1 [Compound 39, [3-(3,5-dichlorophenyl)-1-(2-propyn-1-yl)-1H-pyrazol-4-yl]phenylmethanone]
85: Plant response rating, Waterhemp_RES1 ([12]; 31 g ai/ha) | Plant response rating, Waterhemp_RES1 ([12]; 62 g ai/ha)
90: Plant response rating, Waterhemp_RES1 ([12]; 125 g ai/ha) | Plant response rating, Waterhemp_RES1 ([12]; 250 g ai/ha) | Lambsquarters plant response rating ([5]; 62 g ai/ha) | Lambsquarters plant response rating ([5]; 250 g ai/ha)
100: Lambsquarters plant response rating ([5]; 500 g ai/ha) | Nightshade plant response rating ([9]; 250 g ai/ha)
30: Ragweed plant response rating ([8]; 500 g ai/ha)
10: Plant response rating, Oilseed Rape ([3]; 62 g ai/ha)
60: Plant response rating, Oilseed Rape ([3]; 250 g ai/ha) | Ragweed plant response rating ([8]; 62 g ai/ha)
95: Plant response rating, Waterhemp_RES1 ([12]; 500 g ai/ha) | Lambsquarters plant response rating ([5]; 125 g ai/ha) | Nightshade plant response rating ([9]; 500 g ai/ha)
20: Plant response rating, Oilseed Rape ([3]; 125 g ai/ha)
65: Ragweed plant response rating ([8]; 250 g ai/ha)
0: Crabgrass, Large plant response rating ([10]; 62 g ai/ha) | Crabgrass, Large plant response rating ([10]; 125 g ai/ha) | Crabgrass, Large plant response rating ([10]; 250 g ai/ha) | Crabgrass, Large plant response rating ([10]; 500 g ai/ha) | Plant response rating, Deadnettle ([1]; 16 g ai/ha) | Plant response rating, Deadnettle ([1]; 31 g ai/ha) | Plant response rating, Deadnettle ([1]; 62 g ai/ha) | Plant response rating, Deadnettle ([1]; 125 g ai/ha) | Plant response rating, Deadnettle ([1]; 250 g ai/ha) | Plant response rating, Windgrass ([2]; 16 g ai/ha) | Plant response rating, Windgrass ([2]; 31 g ai/ha) | Plant response rating, Windgrass ([2]; 62 g ai/ha) | Plant response rating, Windgrass ([2]; 125 g ai/ha) | Plant response rating, Windgrass ([2]; 250 g ai/ha) | Plant response rating, Oilseed Rape ([3]; 16 g ai/ha) | Plant response rating, Oilseed Rape ([3]; 31 g ai/ha) | Morningglory plant response rating ([4]; 62 g ai/ha) | Morningglory plant response rating ([4]; 125 g ai/ha) | Morningglory plant response rating ([4]; 250 g ai/ha) | Morningglory plant response rating ([4]; 500 g ai/ha) | Foxtail, Giant plant response rating ([11]; 62 g ai/ha) | Foxtail, Giant plant response rating ([11]; 125 g ai/ha) | Foxtail, Giant plant response rating ([11]; 250 g ai/ha) | Foxtail, Giant plant response rating ([11]; 500 g ai/ha) | Ragweed plant response rating ([8]; 125 g ai/ha) | Nightshade plant response rating ([9]; 62 g ai/ha) | Nightshade plant response rating ([9]; 125 g ai/ha) | Surinam Grass plant response rating ([13]; 62 g ai/ha) | Surinam Grass plant response rating ([13]; 125 g ai/ha) | Surinam Grass plant response rating ([13]; 250 g ai/ha) | Surinam Grass plant response rating ([13]; 500 g ai/ha) | Foxtail, Green plant response rating ([14]; 62 g ai/ha) | Foxtail, Green plant response rating ([14]; 125 g ai/ha) | Foxtail, Green plant response rating ([14]; 250 g ai/ha) | Foxtail, Green plant response rating ([14]; 500 g ai/ha)

O=C(c1ccccc1)c1cn(S(=O)(=O)CC(F)(F)F)nc1-c1cc(Cl)cc(Cl)c1 [Compound 3]
15: Foxtail, Giant plant response rating ([11]; 250 g ai/ha)
0: Crabgrass, Large plant response rating ([10]; 31 g ai/ha) | Crabgrass, Large plant response rating ([10]; 62 g ai/ha) | Crabgrass, Large plant response rating ([10]; 125 g ai/ha) | Crabgrass, Large plant response rating ([10]; 250 g ai/ha) | Crabgrass, Large plant response rating ([10]; 500 g ai/ha) | Morningglory plant response rating ([4]; 31 g ai/ha) | Morningglory plant response rating ([4]; 62 g ai/ha) | Morningglory plant response rating ([4]; 125 g ai/ha) | Morningglory plant response rating ([4]; 250 g ai/ha) | Morningglory plant response rating ([4]; 500 g ai/ha) | Foxtail, Giant plant response rating ([11]; 31 g ai/ha) | Foxtail, Giant plant response rating ([11]; 62 g ai/ha) | Foxtail, Giant plant response rating ([11]; 125 g ai/ha) | Cocklebur plant response rating ([7]; 31 g ai/ha) | Cocklebur plant response rating ([7]; 250 g ai/ha) | Ragweed plant response rating ([8]; 31 g ai/ha) | Ragweed plant response rating ([8]; 62 g ai/ha) | Ragweed plant response rating ([8]; 125 g ai/ha) | Surinam Grass plant response rating ([13]; 31 g ai/ha) | Surinam Grass plant response rating ([13]; 62 g ai/ha) | Surinam Grass plant response rating ([13]; 125 g ai/ha) | Surinam Grass plant response rating ([13]; 250 g ai/ha) | Surinam Grass plant response rating ([13]; 500 g ai/ha) | Foxtail, Green plant response rating ([14]; 31 g ai/ha) | Foxtail, Green plant response rating ([14]; 62 g ai/ha) | Foxtail, Green plant response rating ([14]; 125 g ai/ha) | Foxtail, Green plant response rating ([14]; 250 g ai/ha) | Foxtail, Green plant response rating ([14]; 500 g ai/ha)
65: Plant response rating, Smartweed [6]
100: Ragweed plant response rating ([8]; 250 g ai/ha)
35: Foxtail, Giant plant response rating ([11]; 500 g ai/ha)
95: Ragweed plant response rating ([8]; 500 g ai/ha)

— patent publication US10167262B2, “Herbicidal substituted 3-arylpyrazoles” (FMC CORPORATION, priority 2014, dated 2019)
